Results published in article PMC4837355, “Receptor residence time trumps drug-likeness and oral bioavailability in determining efficacy of complement C5a antagonists” (Scientific Reports, 2016).
Where “and” joins values, the source holds several entries; their conditions need not be identical. Equal entries are not always repeated. Where two headings read alike, the source gives them in different places.

Key:
[1] = in vivo; cited from earlier work
in vivo = conditions: rat; for F (oral availability): 1 mg/kg i.v. versus 10 mg/kg p.o.
Protocol: (§1) Paw oedema was induced in male Wistar rats by intraplantar administration of C5aR-PA (350 μg per paw in 100 μL of saline control). Paw swelling (% area change from baseline) was recorded at indicated timepoints. […] C5aR antagonist was administering as an intravenous dose (1 mg/kg via an implanted jugular vein catheter in 50:50 DMSO/saline) versus an oral dose (10 mg/kg in olive oil, via gavage). Plasma was collected at various time points and analyzed. Error bars are means ± SEM normalized to maximal swelling of saline control. *p < 0.05, **p < 0.01 and ***p < 0.001 by student t-test.
(§2) Male Wistar rats (6–8 wk, 250 ± 50 g) were bred at the Animal Resources Centre (Canning Vale, Australia) and housed post-shipment at the Australian Institute for Bioengineering and Nanotechnology (University of Queensland, Brisbane). […] After specific time-points, C5aR-PA was administered into the right hind paw pad (350 μg in 100 μL saline, i.pl). The left hind paw acted as a control, receiving saline only (100 μL). Rear paw thickness and width were measured at 1 h (and periodically over 4 h) post-injection using digital callipers (World Precision Instruments, Sarasota, FL, USA) and swelling was expressed as area (mm^2; thickness × width) and plotted as percentage change from baseline of each individual paw. […] Plasma was collected at various time points (0, 5, 15, 30 min, 1, 2, 3, 4, 6 and 8 h) from the jugular vein catheter and analyzed for antagonist concentrations using LCMS as described. The animal ethics committee of The University of Queensland approved all experiments according to NHMRC guidelines for the care and use of laboratory animals and in accordance with ARRIVE guidelines for reporting experiments involving animals. A total of N animals were used in each experiment as described.
Supplementary Table 1. Pharmacokinetics parameters of C5aR antagonists in
aC5aR antagonist were administered 1 mg/kg i.v. and 10 mg/kg p.o.
Vdss; volume of distribution steady
Cmax; maximal plasma concentration reached
Tmax; time of maximal Cmax
F; Fraction of intact compound absorbed to plasma (oral availability)
Supplementary Table 2. Primer sequences for target genes.

C5aR [2] = biological target: T1, C5aR (Rattus norvegicus, UniProt P97520); assay: C5aR-PA-induced rat paw oedema; assay type: in vivo, male Wistar rats; conditions: for Effect on paw swelling after 2 h / Reduction in paw swelling: 30 mg/kg p.o.; for Reduction in paw swelling: at 30 min post-injection of C5aR-PA
T1 construct: C5aR-mediated rat paw oedema was induced by intraplantar administration of 350 μg C5aR-PA per hind paw; from tissue; host or cells: living male Wistar rats (hind paw)
T1 sequence (P97520 1-352): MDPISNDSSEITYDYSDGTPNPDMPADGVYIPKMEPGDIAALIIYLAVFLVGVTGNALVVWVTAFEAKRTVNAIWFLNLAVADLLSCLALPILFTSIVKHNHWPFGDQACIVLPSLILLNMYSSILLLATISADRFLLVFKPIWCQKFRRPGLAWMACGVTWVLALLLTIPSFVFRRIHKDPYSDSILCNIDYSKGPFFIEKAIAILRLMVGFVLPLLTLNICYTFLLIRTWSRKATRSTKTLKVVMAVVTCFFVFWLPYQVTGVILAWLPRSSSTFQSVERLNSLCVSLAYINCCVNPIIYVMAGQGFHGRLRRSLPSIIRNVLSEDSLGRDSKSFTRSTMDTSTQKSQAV
Protocol: as §1
as §2, with “C5aR-mediated rat paw oedema was induced by intraplantar administration of 350 μg C5aR-PA per hind paw (Supplementary Fig. 5A). […] Male” for “Male”

C5aR [3] = test system: C5aR; design: method as in PMID 18595693; conditions: inhibition of Ca2+ release versus […] rhC5a on U937 cells; read-out: Antagonist IC50; cited from earlier work
C5aR [4] = biological target: T2, C5aR (Homo sapiens, UniProt P21730); assay: Intracellular calcium release assay in HMDM against rhC5a; conditions: for IC50: HMDM calcium release
T2 sequence (P21730 1-350): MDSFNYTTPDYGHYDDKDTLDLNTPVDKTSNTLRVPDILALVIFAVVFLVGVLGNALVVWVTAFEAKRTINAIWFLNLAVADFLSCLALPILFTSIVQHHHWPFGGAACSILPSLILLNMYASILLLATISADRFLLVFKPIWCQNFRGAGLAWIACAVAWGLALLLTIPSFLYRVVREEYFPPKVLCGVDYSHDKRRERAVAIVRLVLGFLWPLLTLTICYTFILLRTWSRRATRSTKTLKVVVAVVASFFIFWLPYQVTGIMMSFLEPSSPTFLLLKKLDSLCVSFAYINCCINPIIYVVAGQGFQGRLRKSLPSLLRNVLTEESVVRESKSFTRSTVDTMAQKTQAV
Protocol: The concentration-response curves for calcium mobilization induced by rhC5a were determined in the presence of escalating concentrations of each of the three antagonists (Fig. 2D–F). […] Error bars are means ± SEM of three independent experiments (n = 3).
Figure 3 Dependence of antagonist potencies (IC50) on C5a concentration in human monocyte-derived macrophages. […] Calculated pIC50 ± SEM and IC50 values for the three C5aR antagonists are summarized in the table versus concentration of C5a. Error bars are means ± SEM of three independent experiments (n = 3).

C5aR [5] = biological target: T2, C5aR; assay: Washout residence time, calcium release in antagonist-pretreated HMDM; conditions: HMDM pre-treated 1 μM antagonist 1 h, washed, challenged with 3 nM C5a
Excerpt: Intracellular calcium release was induced in HMDM as described[40] and measured using a FLIPR instrument (Molecular Devices).

C5aR [6] = biological target: T2, C5aR
Protocol: A scintillation proximity assay was used to measure the affinity of C5aR antagonists as described[39]. […] Radioligand binding was then analyzed using a Microbeta scintillation counter (PerkinElmer).

C5aR [7] = biological target: T2, C5aR; assay: C5a-induced inflammatory gene expression in HMDM (real-time PCR); conditions: 1 μM antagonist, 10 nM C5a at 16 h post-antagonist treatment
Protocol: Real-time PCR analyses were conducted to further check the effect of residence time in other assays. […] Gene expression was measured by real-time PCR, normalized against 18S and converted to fold change relative to control.
RNA was extracted from cells using ISOLATE II RNA Kit (Bioline) following manufacturer’s instructions. Real-time PCR was performed using 7900HT real-time with SYBR® Green PCR master mix (Applied Biosystems) and primers. Relative gene expression was normalized against 18S rRNA expression and expressed as fold change against control samples.

C5aR [8] = biological target: T2, C5aR; assay: In vitro migration (chemotaxis) assay of HMDM; assay type: cell-based; design: monocytes were isolated from buffy coats of anonymous donors; endogenous in cells; host or cells: primary human monocyte-derived macrophages (CD14+ monocytes from donor buffy coats, matured with M-CSF); conditions: antagonist 1 μM, 1 h then washed; 3 nM C5a for 16 h
Excerpt: Antagonists with a short residence time will be ineffective in this assay, because once the antagonist has dissociated from C5aR, C5a immediately binds and induces migration. […] Chemotactic index is expressed as fold change against control. […] Excess unbound antagonists were washed with serum-free medium and HMDM (0.1 × 10^6 cells/mL) then seeded into 5 μm Transwell inserts (Corning) creating a modified Boyden chamber. […] Migrated cells on the lower side of the membrane were stained with DAPI and counted. The chemotactic index was expressed as fold change versus control.

C5a-induced neutropenia = test system: C5a-induced neutropenia; design: method as in PMID 12384495; conditions: cited from earlier work
C5aR [9] = conditions: inhibition of Ca2+ release versus 0.1nM rhC5a on neutrophils; read-out: Antagonist IC50; cited from earlier work
[10] = male, Wistar, plasma, intravenous, 1 mg/kg
[11] = male, Wistar, plasma, iv, 1 mg/kg
[12] = male, Wistar, plasma, oral, 10 mg/kg
[13] = male, Wistar, plasma, po, 10 mg/kg

Compound	Effect on paw swelling after 2 h (C5aR [2])	Reduction in paw swelling (C5aR [2]) [%]	IC50 (C5aR [4]; IC50, C5a 3 nM) [nM]	IC50 (C5aR [4]; IC50, C5a 10 nM) [nM]	IC50 (C5aR [4]; IC50, C5a 30 nM) [nM]	IC50 (C5aR [4]; IC50, C5a 100 nM) [nM]	IC50 (C5aR [4]; IC50, C5a 300 nM) [nM]	IC50 (C5aR [4]; pIC50 ± SEM, C5a 1 nM) [nM]	Ki (C5aR [6]) [nM]	half-life (in vivo; male, Wistar, plasma) [min]	Vd (in vivo; [10]) [L/kg]	clearance (in vivo; [10]) [mL/min/kg]	AUC (in vivo; [11]) [ng·h/mL]	Cmax (in vivo; [12]) [ng/mL]	AUC (in vivo; [13]) [ng·h/mL]	F (oral availability) (in vivo)	further results
CC(=O)N[C@@H](Cc1ccccc1)C(=O)N[C@H]1CCCNC(=O)[C@H](CCCNC(=N)N)NC(=O)[C@H](Cc2c[nH]c3ccccc23)NC(=O)[C@@H](CC2CCCCC2)NC(=O)[C@@H]2CCCN2C1=O [3D53, Ac-Phe-[Orn-Pro-D-Cha-Trp-Arg]]	–	–	–	–	–	–	–	–	–	–	–	–	–	–	–	–	Safety and tolerability [1]: safe and well tolerated; Tmax (in vivo; male, Wistar, in vivo, po): 50 min; Cmax (in vivo; in vivo): 17.5 ng/mL; Vd (in vivo; in vivo): 4.1 L/kg; clearance (in vivo; in vivo): 52.1 mL/min/kg; half-life (in vivo; in vivo): 21.6 min; AUC (in vivo; in vivo, iv, 1 mg/kg): 323 ng·h/mL; AUC (in vivo; in vivo, po, 10 mg/kg): 76.6 ng·h/mL
CCc1cccc(CC)c1-c1cc(OC(C)C)c2c(n1)CCCC2Nc1ccccc1CCO (stereo not drawn) [JJ47]	not much different to W54011	15	10	122	509	632	1070	1.58	316	43.2	3.5	41	410	127	501	12.2% and ~ 12%	IC50 (C5aR [3]): 7 nM; Kb (C5aR [4]): 5.01 nM; Antagonist mechanism (C5aR [4]; C5a concentration-response curves with escalating antagonist, HMDM): surmountable antagonists; IC50 (C5aR [4]; IC50, C5a 1 nM): 2 nM; Schild plot slope (C5aR [4]; against rhC5a, calcium release, HMDM): 0.94; Half-life t1/2 ± SEM (residence time on C5aR) (C5aR [5]): 36 ± 12 min; Block of C5a-mediated expression of TNF, IL1B, CCL3 and PTGS2 (C5aR [7]): did not; Block of C5a-induced migration (C5aR [8]): not effective antagonists
COc1ccc2c(c1)C(C(=O)N(Cc1ccc(N(C)C)cc1)c1ccc(C(C)C)cc1)CCC2 (stereo not drawn) [W54011]	no longer effective	35	9	24	55	350	1460	3.98	79.4	124	18.3	82.8	212	484	1570	~ 74%	Block of C5aR-PA-induced paw swelling (C5aR [2]; 5 mg/kg per oral): did not block; Effect on C5aR-PA-induced paw swelling (C5aR [2]; 10 mg/kg p.o.): did not have much effect; IC50 (C5aR [4]; pIC50 ± SEM, C5a 3 nM): 7.94 nM; Doses blocking C5a-induced gerbil neutropenia (C5a-induced neutropenia): 3 to 30 mg/kg; bioavailability (in vivo; [13]): 74.3%; IC50 (C5aR [9]): 3 nM
